These results are taken from patent US8802864B2, “Triazolones as fatty acid synthase inhibitors” (GlaxoSmithKline LLC, priority 2010, dated 2014).

In general, IC50 refers to the concentration that inhibits the measured activity by half. Low values mean greater potency in that assay, high ones weaker potency in that assay.

T1 sequence (P49327 whole entry): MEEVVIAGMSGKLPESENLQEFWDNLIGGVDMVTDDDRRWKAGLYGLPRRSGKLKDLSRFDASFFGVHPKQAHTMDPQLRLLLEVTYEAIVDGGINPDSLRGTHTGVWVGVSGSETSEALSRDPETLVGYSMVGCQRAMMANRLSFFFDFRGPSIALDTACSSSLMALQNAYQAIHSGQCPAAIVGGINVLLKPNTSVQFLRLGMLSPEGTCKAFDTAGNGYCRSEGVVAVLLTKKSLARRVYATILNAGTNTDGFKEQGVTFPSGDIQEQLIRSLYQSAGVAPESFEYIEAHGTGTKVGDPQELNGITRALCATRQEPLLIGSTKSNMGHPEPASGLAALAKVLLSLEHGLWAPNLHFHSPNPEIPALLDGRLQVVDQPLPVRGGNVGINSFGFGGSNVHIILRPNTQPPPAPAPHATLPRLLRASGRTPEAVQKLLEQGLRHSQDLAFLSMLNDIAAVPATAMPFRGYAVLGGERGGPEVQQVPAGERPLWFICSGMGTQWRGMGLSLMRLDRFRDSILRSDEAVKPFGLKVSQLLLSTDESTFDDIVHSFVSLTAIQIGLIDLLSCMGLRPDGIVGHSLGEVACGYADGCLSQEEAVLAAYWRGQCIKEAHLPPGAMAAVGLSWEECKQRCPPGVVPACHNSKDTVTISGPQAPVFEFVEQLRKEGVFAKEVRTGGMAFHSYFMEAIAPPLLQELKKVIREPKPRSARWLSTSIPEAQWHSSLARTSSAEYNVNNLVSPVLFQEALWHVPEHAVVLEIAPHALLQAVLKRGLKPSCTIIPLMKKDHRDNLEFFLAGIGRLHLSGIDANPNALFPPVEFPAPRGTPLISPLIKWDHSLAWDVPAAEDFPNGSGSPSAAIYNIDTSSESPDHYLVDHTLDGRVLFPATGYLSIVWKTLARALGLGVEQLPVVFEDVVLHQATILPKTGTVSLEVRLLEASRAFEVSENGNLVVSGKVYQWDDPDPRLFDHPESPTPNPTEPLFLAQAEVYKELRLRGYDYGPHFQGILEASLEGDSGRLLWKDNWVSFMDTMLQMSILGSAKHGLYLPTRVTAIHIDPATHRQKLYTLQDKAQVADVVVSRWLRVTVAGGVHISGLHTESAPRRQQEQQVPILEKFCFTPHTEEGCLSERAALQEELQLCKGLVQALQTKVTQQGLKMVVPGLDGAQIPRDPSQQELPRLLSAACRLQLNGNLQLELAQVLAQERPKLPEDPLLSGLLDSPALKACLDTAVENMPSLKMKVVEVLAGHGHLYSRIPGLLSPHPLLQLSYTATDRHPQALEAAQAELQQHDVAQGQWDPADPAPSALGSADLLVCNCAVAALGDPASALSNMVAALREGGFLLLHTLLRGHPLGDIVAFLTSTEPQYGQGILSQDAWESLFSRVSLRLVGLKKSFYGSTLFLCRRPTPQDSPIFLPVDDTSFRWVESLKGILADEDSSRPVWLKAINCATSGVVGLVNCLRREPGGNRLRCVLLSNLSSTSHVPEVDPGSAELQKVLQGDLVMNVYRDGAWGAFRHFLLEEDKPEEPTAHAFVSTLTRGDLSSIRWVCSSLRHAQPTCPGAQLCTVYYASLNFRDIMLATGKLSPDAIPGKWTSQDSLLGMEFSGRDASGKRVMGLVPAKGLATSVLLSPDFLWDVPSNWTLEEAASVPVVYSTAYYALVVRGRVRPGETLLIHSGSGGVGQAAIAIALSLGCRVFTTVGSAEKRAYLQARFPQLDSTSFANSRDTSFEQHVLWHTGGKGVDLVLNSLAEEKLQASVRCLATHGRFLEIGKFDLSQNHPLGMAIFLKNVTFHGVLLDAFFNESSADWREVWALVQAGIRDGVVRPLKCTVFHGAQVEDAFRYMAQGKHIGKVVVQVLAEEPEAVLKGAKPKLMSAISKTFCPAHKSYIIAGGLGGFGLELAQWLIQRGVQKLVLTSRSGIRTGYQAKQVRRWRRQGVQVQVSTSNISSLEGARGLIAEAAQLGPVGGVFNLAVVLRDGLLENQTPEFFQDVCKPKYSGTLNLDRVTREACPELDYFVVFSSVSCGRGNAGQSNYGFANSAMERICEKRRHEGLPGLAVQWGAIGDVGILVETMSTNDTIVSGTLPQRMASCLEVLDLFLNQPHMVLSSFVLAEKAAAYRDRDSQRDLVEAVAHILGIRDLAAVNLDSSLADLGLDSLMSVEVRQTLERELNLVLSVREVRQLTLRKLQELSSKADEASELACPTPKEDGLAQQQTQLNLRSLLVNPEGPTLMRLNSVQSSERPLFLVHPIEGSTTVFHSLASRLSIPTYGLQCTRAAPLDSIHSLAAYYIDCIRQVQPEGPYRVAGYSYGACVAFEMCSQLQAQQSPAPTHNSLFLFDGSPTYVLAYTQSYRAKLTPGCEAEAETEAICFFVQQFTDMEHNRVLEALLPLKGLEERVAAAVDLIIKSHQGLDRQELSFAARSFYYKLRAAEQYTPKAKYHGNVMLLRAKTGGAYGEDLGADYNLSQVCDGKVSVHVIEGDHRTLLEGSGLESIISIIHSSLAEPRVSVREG

One assay concerns the target T1, FAS (Homo sapiens (Human), UniProt P49327). Nature of the assay: biochemical.
Settings: not given
As to `N#Cc1ccc(-c2ccc(-n3c(C[C@@H]4CCN(C(=O)C5CC5)C4)n[nH]c3=O)cc2)cc1` [Example 4, 4′-(3-{[(3S)-1-(cyclopropylcarbonyl)-3-pyrrolidinyl]methyl}-5-oxo-1,5-dihydro-4H-1,2,4-triazol-4-yl)-4-biphenylcarbonitrile], the IC50 came out at 126 nM. This lies in the sub-micromolar range.

The target in another assay is T1, FAS.
Experiment: not given
The settings on record: inhibition of FAS; tested by one of the two FAS assays; value from at least one experiment or the average of multiple experiments.
In turn, `O=C(C1CC1)N1CC[C@@H](Cc2n[nH]c(=O)n2-c2ccc(-c3ccc4c(c3)OCO4)cc2)C1` [Example 38, 4-[4-(1,3-benzodioxol-5-yl)phenyl]-5-{[(3S)-1-(cyclopropylcarbonyl)-3-pyrrolidinyl]methyl}-2,4-dihydro-3H-1,2,4-triazol-3-one] came in with an IC50 of 158 nM.

`COc1ccc(-c2ccc(-n3c(C[C@@H]4CCN(C(=O)C5CC5)C4)n[nH]c3=O)c(F)c2)cc1` [Example 116, 5-{[(3S)-1-(cyclopropylcarbonyl)-3-pyrrolidinyl]methyl}-4-[3-fluoro-4′-(methyloxy)-4-biphenylyl]-2,4-dihydro-3H-1,2,4-triazol-3-one] returned an IC50 of 40 nM.

The compound `O=C(C1CC1)N1CC[C@@H](Cc2n[nH]c(=O)n2-c2ccc(-c3ccc4cnccc4c3)cc2F)C1` [Example 132, 5-{[(3S)-1-(cyclopropylcarbonyl)-3-pyrrolidinyl]methyl}-4-[2-fluoro-4-(6-isoquinolinyl)phenyl]-2,4-dihydro-3H-1,2,4-triazol-3-one] gave an IC50 of 3 nM. Compared with the last compound, the IC50 is about 13-fold lower.

As to `Cn1nc(C[C@@H]2CCN(C(=O)C3CC3)C2)n(-c2ccc(-c3ccc4occc4c3)cc2)c1=O` [Example 7, 4-[4-(1-benzofuran-5-yl)phenyl]-5-{[(3S)-1-(cyclopropylcarbonyl)-3-pyrrolidinyl]methyl}-2-methyl-2,4-dihydro-3H-1,2,4-triazol-3-one], half-maximal inhibition (IC50) was put at 20 nM.

`O=C(C1CC1)N1CC(Cc2n[nH]c(=O)n2-c2ccc(-c3ccc4cc[nH]c4c3)cc2)C1` [Example 67, 5-{[1-(cyclopropylcarbonyl)-3-azetidinyl]methyl}-4-[4-(1H-indol-6-yl)phenyl]-2,4-dihydro-3H-1,2,4-triazol-3-one] returned an IC50 of 16 nM. The IC50 values of the last two compounds are within 1.5-fold of each other.

Regarding `Cc1cc(-c2ccc3cc[nH]c3c2)ccc1-n1c(C[C@@H]2CCN(C(=O)C3CC3)C2)n[nH]c1=O` [Example 42, 5-{[(3S)-1-(cyclopropylcarbonyl)-3-pyrrolidinyl]methyl}-4-[4-(1H-indol-6-yl)-2-methylphenyl]-2,4-dihydro-3H-1,2,4-triazol-3-one], 5 nM corresponded to half-maximal inhibition (IC50).

Take `CC(=O)Nc1ccc(-c2ccc(-n3c(C[C@@H]4CCN(C(=O)C5CC5)C4)n[nH]c3=O)c(F)c2)cc1` [Example 158, N-[4′-(3-{[(3S)-1-(cyclopropylcarbonyl)-3-pyrrolidinyl]methyl}-5-oxo-1,5-dihydro-4H-1,2,4-triazol-4-yl)-3′-fluoro-4-biphenylyl]acetamide]: half-maximal inhibition (IC50) required 398 nM.

`CN(C)Cc1ccc(-c2ccc(-n3c(C[C@@H]4CCN(C(=O)C5CC5)C4)n[nH]c3=O)cc2)cc1` [Example 95, 5-{[(3S)-1-(cyclopropylcarbonyl)-3-pyrrolidinyl]methyl}-4-{4′-[(dimethylamino)methyl]-4-biphenylyl}-2,4-dihydro-3H-1,2,4-triazol-3-one] had an IC50 of 200 nM.

As to `Cn1cnc2cc(-c3ccc(-n4c(C[C@@H]5CCN(C(=O)C6CC6)C5)n[nH]c4=O)cc3)ccc21` [Example 23, 5-{[(3S)-1-(cyclopropylcarbonyl)-3-pyrrolidinyl]methyl}-4-[4-(1-methyl-1H-benzimidazol-5-yl)phenyl]-2,4-dihydro-3H-1,2,4-triazol-3-one], the IC50 turned out to be 13 nM.

For the compound `O=C(C1CC1)N1CC[C@@H](Cc2n[nH]c(=O)n2-c2ccc(-c3ccc4ccoc4c3)cc2)C1` [Example 14, 4-[4-(1-benzofuran-6-yl)phenyl]-5-{[(3S)-1-(cyclopropylcarbonyl)-3-pyrrolidinyl]methyl}-2,4-dihydro-3H-1,2,4-triazol-3-one], 6 nM corresponded to half-maximal inhibition (IC50).
